{"source": "patent US20220306695A1", "about": "“COMPSTATIN ANALOGUES AND THEIR MEDICAL USES” (priority 2019, published 2022)", "key": {"in vivo": {"test": "in vivo", "design": "species or system Cynomolgus monkeys (Macaca fascicularis)", "conditions": "male, cynomolgus monkey, sc, 1840 nmol/kg, t½", "how_it_was_run": "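Healthy male cynomolgus monkeys dosed once subcutaneously at 1840 nmol/kg in 20 mM phosphate pH 7.5 with mannitol. Serum sampled pre-dose to 120 h and total drug measured by SPE and LC-MS/MS. Terminal half-life calculated non-compartmentally as ln(2)/λz from the terminal log-linear phase.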"}, "[1]": {"test_system": "classical complement pathway", "test": "In vitro haemolysis assay (inhibition of classical complement pathway)", "format": "cell-based, human", "conditions": "Table 3; human serum, sensitized sheep red blood cells; read-out: IC50[nM], in vitro analysis of inhibition of hemolysis", "how_it_was_run": "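Serially diluted compound (9 points) was preincubated 15 min at room temperature with diluted human serum, titrated per batch to give 70-90% maximal haemolysis, in Tris/casein buffer pH 7.4 with Mg2+/Ca2+. Antibody-sensitized sheep erythrocytes were then added for 30 min at 37° C, and the reaction was stopped with EDTA. Haemolysis was read at A405, with IC50 from 4PL fit.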"}, "[2]": {"test": "Solubility test at 10 mg/mL (visual inspection and light scattering)", "format": "physicochemical", "conditions": "for Solubility, Condition 1 Acetate pH 4: 10 mg/mL compound in 100 mM acetate pH 4; for Solubility, Condition 2 Acetate pH 5: 10 mg/mL compound in 100 mM acetate pH 5; for Solubility, Condition 3 Phosphate pH 6: 10 mg/mL compound in 100 mM phosphate pH 6; for Solubility, Condition 4 Phosphate pH 7: 10 mg/mL compound in 100 mM phosphate pH 7; for Solubility, Condition 5 Phosphate pH 7.5: 10 mg/mL compound in 100 mM phosphate pH 7.5"}, "[3]": {"test_system": "alternative complement pathway", "test": "Ex vivo alternative pathway complement activity (WIESLAB kit) in serum of dosed non-human primates", "design": "species or system Cynomolgus monkeys (Macaca fascicularis)", "conditions": "NHP, subcutaneous 1840 nmol/kg, FIG. 1", "experimental": "FIG. 1(a-g): Normalized “ex vivo” activity of the alternative complement pathway over time after administration of a test compound at time 0 to non-human primates. Compounds were given subcutaneously at a dose of 1840 nmol/kg. Complement activity (alternative pathway) was measured using the Wieslab kit. Activity was normalized using the predose (0) sample (set to 100%) and the negative control included in the kit. Normalized activity or average normalized activity for animals and standard deviation is shown.\nHealthy male Cynomolgus monkeys (Macaca fascicularis) received single subcutaneous administrations of each test substance. Compounds were formulated in 20 mM phosphate adjusted with NaOH to pH 7.5 and mannitol for isotonicity and dosed at 1840 nmol/kg. Blood was collected from a femoral vein from each animal at the following times: Pre-dose, 1, 2, 4, 8, 24, 48, 72, 96 and 120 h (10 sampling times). Blood was collected into serum separation tubes and allowed to clot at room temperature. The tubes were centrifuged and resulting serum was aliquoted and snap-frozen over dry-ice and stored at nominally −80° C. until analysis. All NHP studies were performed in accordance with animal welfare laws and regulations, including approval of the study by a local ethical review process.\nSerum isolated from non-human primates at specific time points after dosing were analyzed for alternative pathway complement activity using the Complement system Alternative Pathway WIESLAB® kit from Svar Life Science (previously Euro diagnostic AB, Sweden) following the manufacturer's protocol. Briefly, serum samples or controls were diluted in buffer and incubated in microtitre strips coated with specific activators of the alternative pathway. The wells were washed and formed C5b-9 was detected using included colorimetric reagents.\nAbsorbance at 405 nm was measured. The percent activity of the alternative complement pathway was calculated for each animal and timepoint relative to the pre-dose activity (0 hours) of the individual animal with subtraction of the negative control. […]"}, "Human C3 [4]": {"biological_target": "T1, Human C3 (human, UniProt P01024 23-1663)", "T1 sequence (P01024 23-1663 limits assumed)": "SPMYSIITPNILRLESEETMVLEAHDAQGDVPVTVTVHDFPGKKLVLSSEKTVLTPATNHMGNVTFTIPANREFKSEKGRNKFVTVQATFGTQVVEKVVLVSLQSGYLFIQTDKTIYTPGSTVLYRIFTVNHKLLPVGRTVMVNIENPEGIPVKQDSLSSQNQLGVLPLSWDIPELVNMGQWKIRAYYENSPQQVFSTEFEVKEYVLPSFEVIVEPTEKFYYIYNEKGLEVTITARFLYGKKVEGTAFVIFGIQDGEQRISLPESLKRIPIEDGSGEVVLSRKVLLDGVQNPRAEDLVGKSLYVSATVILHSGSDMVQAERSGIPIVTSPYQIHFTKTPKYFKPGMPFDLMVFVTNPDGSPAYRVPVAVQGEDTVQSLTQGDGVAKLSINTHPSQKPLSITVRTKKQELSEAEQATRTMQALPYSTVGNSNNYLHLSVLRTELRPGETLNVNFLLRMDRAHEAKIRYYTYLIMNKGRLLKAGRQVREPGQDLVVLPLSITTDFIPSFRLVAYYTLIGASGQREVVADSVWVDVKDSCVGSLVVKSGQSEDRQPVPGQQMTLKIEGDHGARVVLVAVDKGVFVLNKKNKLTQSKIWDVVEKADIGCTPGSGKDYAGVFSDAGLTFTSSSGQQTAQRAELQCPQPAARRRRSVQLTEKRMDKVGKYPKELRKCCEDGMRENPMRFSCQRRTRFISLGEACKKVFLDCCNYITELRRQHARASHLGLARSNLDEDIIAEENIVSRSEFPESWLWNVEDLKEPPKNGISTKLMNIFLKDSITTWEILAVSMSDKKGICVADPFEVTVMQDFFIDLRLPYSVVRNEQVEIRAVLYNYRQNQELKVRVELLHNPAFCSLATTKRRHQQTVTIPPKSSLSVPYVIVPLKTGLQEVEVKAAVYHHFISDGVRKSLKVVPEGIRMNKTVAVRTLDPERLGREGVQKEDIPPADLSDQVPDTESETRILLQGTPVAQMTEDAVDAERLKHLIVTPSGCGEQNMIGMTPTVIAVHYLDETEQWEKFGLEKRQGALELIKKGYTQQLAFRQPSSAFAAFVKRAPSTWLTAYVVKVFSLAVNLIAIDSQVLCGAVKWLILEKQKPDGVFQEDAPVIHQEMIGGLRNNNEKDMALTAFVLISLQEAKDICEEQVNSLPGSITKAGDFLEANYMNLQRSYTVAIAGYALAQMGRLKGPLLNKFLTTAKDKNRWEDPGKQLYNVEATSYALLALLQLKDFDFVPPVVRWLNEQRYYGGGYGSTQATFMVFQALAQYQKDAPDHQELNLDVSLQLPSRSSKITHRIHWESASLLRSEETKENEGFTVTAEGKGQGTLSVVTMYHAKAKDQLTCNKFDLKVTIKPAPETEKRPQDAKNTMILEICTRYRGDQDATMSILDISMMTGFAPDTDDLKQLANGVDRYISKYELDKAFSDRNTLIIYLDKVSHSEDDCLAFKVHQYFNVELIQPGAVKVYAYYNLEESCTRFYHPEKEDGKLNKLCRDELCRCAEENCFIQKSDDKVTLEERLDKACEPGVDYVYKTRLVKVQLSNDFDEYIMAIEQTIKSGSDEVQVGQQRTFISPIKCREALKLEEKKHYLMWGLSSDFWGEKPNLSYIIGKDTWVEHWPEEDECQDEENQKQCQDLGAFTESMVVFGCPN", "test": "cell-based or functional assay"}, "Human C3 [5]": {"biological_target": "T1, Human C3", "test": "cell-based or functional assay", "remark": "listed apart in the source"}}, "note": "Positions of bridges follow the written chain, without caps; N, C: chain ends. Non-standard residues stand in square brackets, D forms with d. Residues, ends and D or L forms follow the SMILES beside them. Trp(1-Me) = Cn1cc(C[C@H](N)C(=O)O)c2ccccc21; Sar = CNCC(=O)O", "data": [{"molecule": "CC[C@H](C)[C@@H]1NC(=O)[C@@H](NC(=O)[C@H](Cc2ccc(O)cc2)NC(=O)[C@H](C)NC(=O)[C@H](CO)NC(=O)CNC(=O)[C@H](CCC(=O)O)NC(C)=O)CSSC[C@@H](C(=O)N(C)CC(=O)N[C@@H](CCC(=O)O)C(N)=O)NC(=O)[C@H](CCCNC(=N)N)NC(=O)[C@H](Cc2c[nH]cn2)NC(=O)[C@H](CCC(=O)O)NC(=O)CNC(=O)[C@H](Cc2c[nH]c3ccccc23)NC(=O)[C@H](CC(=O)O)NC(=O)[C@H](CCC(N)=O)NC(=O)[C@H](Cc2cn(C)c3ccccc23)NC1=O", "note": "[Compound 54] (Ac-EGSAYCI[Trp(1-Me)]QDWGEHRC[Sar]E-NH2; disulfide 6-16)", "values": [{"measurement": "half-life", "setting": "in vivo", "value": 9.71, "unit": "h"}, {"measurement": "IC50", "setting": "[1]", "value": "< 100", "unit": "nM"}, {"measurement": "Solubility, Condition 1 Acetate pH 4", "setting": "[2]", "value": "− (denotes lack of solubility at the given condition, as UV absorbance at 340 nm exceeds 0.1 AU and/or it is visibly turbid or contains particles.)"}, {"measurement": "Solubility, Condition 2 Acetate pH 5", "setting": "[2]", "value": "− (denotes lack of solubility at the given condition, as UV absorbance at 340 nm exceeds 0.1 AU and/or it is visibly turbid or contains particles.)"}, {"measurement": "Solubility, Condition 3 Phosphate pH 6", "setting": "[2]", "value": "+ (denotes solubility at the given condition, as determined by UV absorbance being less than 0.1 AU at 340 nm and the sample being clear when manually inspected.)"}, {"measurement": "Solubility, Condition 4 Phosphate pH 7", "setting": "[2]", "value": "+ (denotes solubility at the given condition, as determined by UV absorbance being less than 0.1 AU at 340 nm and the sample being clear when manually inspected.)"}, {"measurement": "Solubility, Condition 5 Phosphate pH 7.5", "setting": "[2]", "value": "+ (denotes solubility at the given condition, as determined by UV absorbance being less than 0.1 AU at 340 nm and the sample being clear when manually inspected.)"}, {"measurement": "Duration of pharmacological activity (alternative complement pathway activity) in vivo", "setting": "[3]", "value": "relatively short duration of action"}]}, {"molecule": "CC[C@H](C)[C@@H]1NC(=O)[C@@H](NC(=O)[C@H](Cc2ccccc2)NC(C)=O)CSSC[C@@H](C(=O)N[C@H](C(=O)NCC(=O)N[C@@H](C)C(=O)N[C@@H](CCC(=O)O)C(=O)N[C@@H](CO)C(N)=O)[C@@H](C)O)NC(=O)[C@H](CCCNC(=N)N)NC(=O)[C@H](Cc2c[nH]cn2)NC(=O)[C@H](CCC(=O)O)NC(=O)CNC(=O)[C@H](Cc2c[nH]c3ccccc23)NC(=O)[C@H](CC(=O)O)NC(=O)[C@H](CCC(N)=O)NC(=O)[C@H](Cc2cn(C)c3ccccc23)NC1=O", "note": "[Compound 61] (Ac-FCI[Trp(1-Me)]QDWGEHRCTGAES-NH2; disulfide 2-12)", "values": [{"measurement": "half-life", "setting": "in vivo", "value": 23.3, "unit": "h"}, {"measurement": "IC50", "setting": "[1]", "value": "< 100", "unit": "nM"}, {"measurement": "Solubility, Condition 1 Acetate pH 4", "setting": "[2]", "value": "− (denotes lack of solubility at the given condition, as UV absorbance at 340 nm exceeds 0.1 AU and/or it is visibly turbid or contains particles.)"}, {"measurement": "Solubility, Condition 2 Acetate pH 5", "setting": "[2]", "value": "− (denotes lack of solubility at the given condition, as UV absorbance at 340 nm exceeds 0.1 AU and/or it is visibly turbid or contains particles.)"}, {"measurement": "Solubility, Condition 3 Phosphate pH 6", "setting": "[2]", "value": "+ (denotes solubility at the given condition, as determined by UV absorbance being less than 0.1 AU at 340 nm and the sample being clear when manually inspected.)"}, {"measurement": "Solubility, Condition 4 Phosphate pH 7", "setting": "[2]", "value": "+ (denotes solubility at the given condition, as determined by UV absorbance being less than 0.1 AU at 340 nm and the sample being clear when manually inspected.)"}, {"measurement": "Solubility, Condition 5 Phosphate pH 7.5", "setting": "[2]", "value": "+ (denotes solubility at the given condition, as determined by UV absorbance being less than 0.1 AU at 340 nm and the sample being clear when manually inspected.)"}, {"measurement": "Duration of pharmacological activity (alternative complement pathway activity) in vivo", "setting": "[3]", "value": "relatively short duration of action"}]}, {"molecule": "CC[C@H](C)[C@H](NC(=O)[C@H](N)Cc1ccc(O)cc1)C(=O)N[C@H]1CSSC[C@@H](C(=O)N(C)[C@H](C(N)=O)[C@@H](C)CC)NC(=O)[C@H](CCCNC(=N)N)NC(=O)[C@H](Cc2c[nH]cn2)NC(=O)[C@H](C)NC(=O)CN(C)C(=O)[C@H](Cc2c[nH]c3ccccc23)NC(=O)[C@H](CC(=O)O)NC(=O)[C@H](CCC(N)=O)NC(=O)[C@H](Cc2cn(C)c3ccccc23)NC(=O)[C@H](C(C)C)NC1=O", "note": "[Cp40, H-{d}YIC(1)V[1-Me-Trp]QDW[Sar]AHRC(1)[N-Me-Ile]-NH2, reference compound]", "values": [{"measurement": "half-life", "setting": "in vivo", "value": 31.8, "unit": "h"}, {"measurement": "IC50", "setting": "[1]", "value": "< 100", "unit": "nM"}, {"measurement": "Duration of pharmacological activity (alternative complement pathway activity) in vivo", "setting": "[3]", "value": "relatively short duration of action"}]}, {"molecule": "Ac-ICIWQDWGAHRCT-NH2 (disulfide 2-12; SMILES CC[C@H](C)[C@H](NC(C)=O)C(=O)N[C@H]1CSSC[C@@H](C(=O)N[C@H](C(N)=O)[C@@H](C)O)NC(=O)[C@H](CCCNC(=N)N)NC(=O)[C@H](Cc2c[nH]cn2)NC(=O)[C@H](C)NC(=O)CNC(=O)[C@H](Cc2c[nH]c3ccccc23)NC(=O)[C@H](CC(=O)O)NC(=O)[C@H](CCC(N)=O)NC(=O)[C@H](Cc2c[nH]c3ccccc23)NC(=O)[C@H]([C@@H](C)CC)NC1=O)", "note": "[Compound 1]", "values": [{"measurement": "CP hemolysis IC50", "setting": "Human C3 [4]", "value": 0.15, "unit": "µM"}, {"measurement": "IC50[nM], inhibition of hemolysis", "setting": "Human C3 [5]", "value": "< 250", "unit": "nM"}]}]}
